molecular target: transcription apparatus of the influenza virus (Influenza A virus, UniProt P03433); test: in vitro influenza transcription assay; format: biochemical

Structure (SMILES) | IC50 | IC50 in flu transcription assay (compared with the natural product)
CC(C)/C=C1\N=C(CC(C)C)C(=O)N(O)C1=O [Compound I, 1-(N-hydroxy)-3-(2-methyl-propyl)-5-(2-methyl-Z-prop-1-enyl)-2,6-diketopiperazine-3,4-ene] | 5 µM | same IC50
CC(C)CC1=N/C(=C\c2ccccc2)C(=O)N(O)C1=O [Example 8, 1-(N-hydroxy)-3-(2-methyl-propyl)-5-(Z-benz-1-enyl)-2.6-diketopiperazine-3,4-ene] | 4.8 µM | 
CC(C)CC1=N/C(=C\c2ccc(F)cc2)C(=O)N(O)C1=O [Example 9, 1-(N-hydroxy)-3-(2-methyl-propyl)-5-(Z-p-fluorobenz-1-enyl)-2.6-diketopiperazine-3.4-ene] | 0.9 µM | 
CC(C)CC1=N/C(=C\c2ccccc2F)C(=O)N(O)C1=O [Example 10, 1-(N-hydroxy)-3-(2-methyl-propyl)-5-(Z-o-fluorobenz-1-enyl)-2,6-diketopiperazine-3,4-ene] | 7.3 µM | 
CC(C)CC1=N/C(=C\c2cccc(F)c2)C(=O)N(O)C1=O [Example 11, 1-(N-hydroxy)-3-(2-methyl-propyl)-5-(Z-m-fluorobenz-1-enyl)-2,6-diketopiperazine-3,4-ene] | 1.5 µM | 
COc1ccc(/C=C2\N=C(CC(C)C)C(=O)N(O)C2=O)cc1 [Example 12, 1-(N-hydroxy)-3-(2-methyl-propyl)-5-(Z-p-methoxybenz-1-enyl)-2,6-diketopiperazine-3,4-ene] | 0.8 µM | 
COc1ccc(/C=C2\N=C(Cc3ccccc3)C(=O)N(O)C2=O)cc1 [Example 14, 1-(N-hydroxy)-3-(benzyl)-5-(Z-p-methoxybenz-1-enyl)-2,6-diketopiperazine-3,4-ene] | 2.8 µM | 
O=C1C(Cc2ccccc2)=N/C(=C\c2ccc(F)cc2)C(=O)N1O [Example 15A, 1-(N-hydroxy)-3-(benzyl)-5-(Z-p-fluoro-benz-1-enyl)-2,6-diketopiperazine-3,4-ene] | 3.5 µM | 
O=C1C(Cc2ccc(F)cc2)=N/C(=C\c2ccccc2)C(=O)N1O [Example 15B] | 6.5 µM | 
CC(C)CC1NC(Cc2ccc(F)cc2)C(=O)N(O)C1=O (centres unmarked) [Example 16] | 85 µM | 
